Assay results taken from patent US9549558B2, “Herbicidal azines” (BASF SE, priority 2012, dated 2017).

Experiments:
Format in all cases: in vivo
VIOAR (Viola arvensis) = assay: greenhouse pre-emergence herbicidal test; details: 0.125 kg/ha
Excerpt: (§1) The culture containers used were plastic flowerpots containing loamy sand with approximately 3.0% of humus as the substrate. The seeds of the test plants were sown separately for each species.
(§2) For the pre-emergence treatment, the active ingredients, which had been suspended or emulsified in water, were applied directly after sowing by means of finely distributing nozzles. The containers were irrigated gently to promote germination and growth and subsequently covered with transparent plastic hoods until the plants had rooted. This cover caused uniform germination of the test plants, unless this had been impaired by the active ingredients.
(§3) Depending on the species, the plants were kept at 10-25° C. or 20-35° C., respectively.
(§4) The test period extended over 2 to 4 weeks. During this time, the plants were tended, and their response to the individual treatments was evaluated.
(§5) Evaluation was carried out using a scale from 0 to 100. 100 means no emergence of the plants, or complete destruction of at least the aerial moieties, and 0 means no damage, or normal course of growth. A moderate herbicidal activity is given at values of at least 60, a good herbicidal activity is given at values of at least 70, and a very good herbicidal activity is given at values of at least 85.
(§6) The plants used in the greenhouse experiments were of the following species: […]

[1] = test system: ABUTH (Abutilon theophrasti); assay: greenhouse post-emergence herbicidal test
Excerpt: as §1
(§7) For the post-emergence treatment, the test plants were first grown to a height of 3 to 15 cm, depending on the plant habit, and only then treated with the active ingredients which had been suspended or emulsified in water. For this purpose, the test plants were either sown directly and grown in the same containers, or they were first grown separately as seedlings and transplanted into the test containers a few days prior to treatment.
as §3, §4, §5, §6

[2] = test system: AMARE (Amaranthus retroflexus); assay: greenhouse post-emergence herbicidal test
Excerpt: as §1, §7, §3, §4, §5, §6

[3] = test system: AMARE (Amaranthus retroflexus); assay: greenhouse pre-emergence herbicidal test
Excerpt: (§8) The seeds of the test plants were sown separately for each species. For the pre-emergence treatment, the active ingredients, which had been suspended or emulsified in water, were applied directly after sowing by means of finely distributing nozzles. The containers were irrigated gently to promote germination and growth and subsequently covered with transparent plastic hoods until the plants had rooted. This cover caused uniform germination of the test plants, unless this had been impaired by the active ingredients. Depending on the species, the plants were kept at 10-25° C. or 20-35° C., respectively. The test period extended over 2 to 4 weeks. During this time, the plants were tended, and their response to the individual treatments was evaluated. […] A moderate herbicidal activity is given at values of at least 60, a good herbicidal activity is given at values of at least 70, and a very good herbicidal activity is given at values of at least 85. The plants used in the greenhouse experiments were of the following species: [table]

SETFA (Setaria faberi) = assay: greenhouse pre-emergence herbicidal test
Excerpt: as §1, §2, §3, §4, §5, §6

[4] = test system: ECHCG (Echinocloa crus-galli); assay: greenhouse pre-emergence herbicidal test
Excerpt: as §1, §2, §3, §4, §5, §6

[5] = test system: CAPBP (Capsella bursa-pastoris); assay: greenhouse pre-emergence herbicidal test; details: CAPBP
Excerpt: as §1, §2, §3, §4, §5, §6

STEME (Stellaria media) = assay: greenhouse pre-emergence herbicidal test
Excerpt: as §1, §2, §3, §4, §5, §6

[6] = test system: ABUTH (Abutilon theophrasti); assay: greenhouse pre-emergence herbicidal test
Excerpt: as §8

CC(F)c1nc(N)nc(Nc2c(F)cc(Br)cc2F)n1 (stereo not shown) [Example 19]
herbicidal activity (VIOAR (Viola arvensis)): good (a good herbicidal activity is given at values of at least 70)

CC(C)(F)c1nc(N)nc(Nc2ccc(F)cc2F)n1 [Example 22]
herbicidal activity (VIOAR (Viola arvensis)): good (a good herbicidal activity is given at values of at least 70)

CC(C)(F)c1nc(N)nc(Nc2cc(F)cc(F)c2)n1 [Example 25]
herbicidal activity (VIOAR (Viola arvensis)): very good (a very good herbicidal activity is given at values of at least 85)

CC(C)(F)c1nc(N)nc(Nc2c(F)cc(F)cc2F)n1 [Example 28]
herbicidal activity ([1]; 0.125 kg/ha): very good (a very good herbicidal activity is given at values of at least 85)
herbicidal activity ([2]; 0.125 kg/ha): very good (a very good herbicidal activity is given at values of at least 85)

CC(C)(F)c1nc(N)nc(Nc2c(F)ccc(F)c2Cl)n1 [Example 36]
herbicidal activity ([1]; 0.062 kg/ha): very good (a very good herbicidal activity is given at values of at least 85)
herbicidal activity ([2]; 0.062 kg/ha): very good (a very good herbicidal activity is given at values of at least 85)

C=C(C)c1nc(N)nc(Nc2c(F)c(F)c(F)c(F)c2F)n1 [Example 53]
herbicidal activity ([3]; 0.125 kg/ha): very good (a very good herbicidal activity is given at values of at least 85)
herbicidal activity (SETFA (Setaria faberi); 0.125 kg/ha): good (a good herbicidal activity is given at values of at least 70)

CC(C)(C)c1nc(N)nc(Nc2c(F)ccc(F)c2F)n1 [Example 80]
herbicidal activity ([4]; 125 g/ha): very good (a very good herbicidal activity is given at values of at least 85)
herbicidal activity ([5]; 125 g/ha): very good (a very good herbicidal activity is given at values of at least 85)
herbicidal activity (STEME (Stellaria media); 125 g/ha): very good (a very good herbicidal activity is given at values of at least 85)

CCC(CC)c1nc(N)nc(Nc2c(F)c(F)c(F)c(F)c2F)n1 [Example 83]
herbicidal activity ([4]; 250 g/ha): very good (a very good herbicidal activity is given at values of at least 85)
herbicidal activity ([5]; 250 g/ha): very good (a very good herbicidal activity is given at values of at least 85)
herbicidal activity (STEME (Stellaria media); 250 g/ha): very good (a very good herbicidal activity is given at values of at least 85)

Nc1nc(Nc2c(F)ccc(Cl)c2F)nc(C(F)(F)F)n1 [Example 126]
herbicidal activity ([1]; 1000 g/ha): good (a good herbicidal activity is given at values of at least 70)
herbicidal activity ([2]; 1000 g/ha): very good (a very good herbicidal activity is given at values of at least 85)

Nc1nc(CC2CC2)nc(Nc2c(F)cc(F)cc2F)n1 [Example 141]
herbicidal activity ([3]; 1000 g/ha): very good (a very good herbicidal activity is given at values of at least 85)
herbicidal activity ([4]; 1000 g/ha): good (a good herbicidal activity is given at values of at least 70)
herbicidal activity (SETFA (Setaria faberi); 1000 g/ha): very good (a very good herbicidal activity is given at values of at least 85)

Nc1nc(Nc2c(F)cc(F)cc2F)nc(C2CCC2)n1 [Example 142]
herbicidal activity ([6]; 500 g/ha): good (a good herbicidal activity is given at values of at least 70)
herbicidal activity ([3]; 500 g/ha): very good (a very good herbicidal activity is given at values of at least 85)
herbicidal activity (SETFA (Setaria faberi); 500 g/ha): good (a good herbicidal activity is given at values of at least 70)

CC(Cl)(Cl)c1nc(N)nc(Nc2c(F)c(F)c(F)c(F)c2F)n1 [Example 147]
herbicidal activity ([3]; 250 g/ha): very good (a very good herbicidal activity is given at values of at least 85)
herbicidal activity ([4]; 250 g/ha): very good (a very good herbicidal activity is given at values of at least 85)
herbicidal activity (SETFA (Setaria faberi); 250 g/ha): very good (a very good herbicidal activity is given at values of at least 85)

Nc1nc(Nc2c(F)c(F)cc(F)c2F)nc(C(F)F)n1 [Example 150]
herbicidal activity ([6]; 500 g/ha): very good (a very good herbicidal activity is given at values of at least 85)
herbicidal activity ([3]; 500 g/ha): very good (a very good herbicidal activity is given at values of at least 85)
herbicidal activity (SETFA (Setaria faberi); 500 g/ha): very good (a very good herbicidal activity is given at values of at least 85)

N#Cc1cccc(F)c1Nc1nc(N)nc(C(F)(F)F)n1 [Example 151]
herbicidal activity ([1]; 500 g/ha): good (a good herbicidal activity is given at values of at least 70)

COc1ccc(F)c(F)c1Nc1nc(N)nc(C(F)(F)F)n1 [Example 158]
herbicidal activity ([1]; 1000 g/ha): very good (a very good herbicidal activity is given at values of at least 85)

Nc1nc(Nc2c(F)c(F)c(F)c(F)c2F)nc(C2CCC(C(F)(F)F)CC2)n1 (stereo not shown) [Example 165]
herbicidal activity ([3]; 1000 g/ha): very good (a very good herbicidal activity is given at values of at least 85)
herbicidal activity ([4]; 1000 g/ha): very good (a very good herbicidal activity is given at values of at least 85)
herbicidal activity (SETFA (Setaria faberi); 1000 g/ha): very good (a very good herbicidal activity is given at values of at least 85)

COC1CCC(c2nc(N)nc(Nc3c(F)c(F)c(F)c(F)c3F)n2)CC1 (stereo not shown) [Example 167]
herbicidal activity ([6]; 500 g/ha): good (a good herbicidal activity is given at values of at least 70)
herbicidal activity ([3]; 500 g/ha): very good (a very good herbicidal activity is given at values of at least 85)
herbicidal activity (SETFA (Setaria faberi); 500 g/ha): very good (a very good herbicidal activity is given at values of at least 85)

CC(C)(C)C1CCC(c2nc(N)nc(Nc3c(F)c(F)c(F)c(F)c3F)n2)CC1 (stereo not shown) [Example 177]
herbicidal activity ([3]; 500 g/ha): very good (a very good herbicidal activity is given at values of at least 85)
herbicidal activity (SETFA (Setaria faberi); 500 g/ha): good (a good herbicidal activity is given at values of at least 70)

CC=C(C)c1nc(N)nc(Nc2c(F)c(F)c(Br)c(F)c2F)n1 [Example 194]
herbicidal activity (SETFA (Setaria faberi); 500 g/ha): good (a good herbicidal activity is given at values of at least 70)

CCCCC(C#N)c1nc(N)nc(Nc2c(F)ccc(F)c2F)n1 (stereo not shown) [Example 197]
herbicidal activity (SETFA (Setaria faberi); 1000 g/ha): good (a good herbicidal activity is given at values of at least 70)

CCC(C)(Cl)c1nc(N)nc(Nc2c(F)c(F)cc(F)c2F)n1 (stereo not shown) [Example 205]
herbicidal activity ([3]; 125 g/ha): very good (a very good herbicidal activity is given at values of at least 85)
herbicidal activity ([4]; 125 g/ha): very good (a very good herbicidal activity is given at values of at least 85)
herbicidal activity (SETFA (Setaria faberi); 125 g/ha): very good (a very good herbicidal activity is given at values of at least 85)

Nc1nc(Nc2c(F)ccc(F)c2F)nc(C2CCCC2)n1 [Example 212]
herbicidal activity ([3]; 500 g/ha): very good (a very good herbicidal activity is given at values of at least 85)
herbicidal activity ([4]; 500 g/ha): very good (a very good herbicidal activity is given at values of at least 85)
herbicidal activity (SETFA (Setaria faberi); 500 g/ha): very good (a very good herbicidal activity is given at values of at least 85)

N#CC1(c2nc(N)nc(Nc3c(F)c(F)cc(F)c3F)n2)CC1 [Example 216]
herbicidal activity ([6]; 250 g/ha): good (a good herbicidal activity is given at values of at least 70)
herbicidal activity ([3]; 250 g/ha): very good (a very good herbicidal activity is given at values of at least 85)
herbicidal activity (SETFA (Setaria faberi); 250 g/ha): good (a good herbicidal activity is given at values of at least 70)

CC(C)(F)c1nc(N)nc(Nc2c(F)cc([N+](=O)[O-])cc2F)n1 [Example 220]
herbicidal activity (SETFA (Setaria faberi); 500 g/ha): good (a good herbicidal activity is given at values of at least 70)

CC(C)(C)C(=O)N(c1nc(N)nc(C(C)(C)C)n1)c1c(F)c(F)cc(F)c1F [Example 286]
herbicidal activity ([6]; 125 g/ha): very good (a very good herbicidal activity is given at values of at least 85)
herbicidal activity ([3]; 125 g/ha): very good (a very good herbicidal activity is given at values of at least 85)
herbicidal activity (SETFA (Setaria faberi); 125 g/ha): very good (a very good herbicidal activity is given at values of at least 85)

Nc1nc(C2=CCCCC2)nc(N(C(=O)C2=CCCCC2)c2c(F)c(F)c(F)c(F)c2F)n1 [Example 303]
herbicidal activity ([1]; 500 g/ha): good (a good herbicidal activity is given at values of at least 70)
herbicidal activity ([2]; 500 g/ha): good (a good herbicidal activity is given at values of at least 70)

Nc1nc(C2CCCC2)nc(N(C(=O)C2CCCC2)c2c(F)c(F)cc(F)c2F)n1 [Example 304]
herbicidal activity ([3]; 1000 g/ha): very good (a very good herbicidal activity is given at values of at least 85)
herbicidal activity ([4]; 1000 g/ha): very good (a very good herbicidal activity is given at values of at least 85)
herbicidal activity (SETFA (Setaria faberi); 1000 g/ha): very good (a very good herbicidal activity is given at values of at least 85)

CN(c1nc(N)nc(C(C)(C)F)n1)c1c(F)c(F)c(F)c(F)c1F [Example 307]
herbicidal activity ([3]; 125 g/ha): very good (a very good herbicidal activity is given at values of at least 85)
herbicidal activity (SETFA (Setaria faberi); 125 g/ha): very good (a very good herbicidal activity is given at values of at least 85)
